Results taken from US8765982B2, “Synergistic anticoagulant composition” (priority 2009, dated 2014).
Where “and” joins values, the source holds several entries; their conditions need not be identical. Equal values may be shown once.

Tests used:
blood clotting [1] = experiment: Rat feeding study: prothrombin time; format: in vivo, Sprague-Dawley rats; set-up: Pro Time: unit not given beside the values; settings: rats; for Pro Time: in feed
Description: (§1) Male, albino, Sprague-Dawley rats (n=100) weighing 150-175 g were placed in quarantine for 1 week and then housed in individual cages. To determine food consumption, rat chow in containers was weighed at the beginning and end of the day to determine the weight of the food consumed by each animal. The containers were modified to prevent spillage. Rats were provided with water ad libitum. The chow was composed of rolled oats, sugar and peanut oil (92:4:4) (w:w:w) plus a standard vitamin/mineral mix.
(§2) Administration of anticoagulant was accomplished by uniformly dispersing the compound in the peanut oil used in the chow. […] […] Actual concentration of the drug to be applied will be based on the average food consumption determined for the rats.
(§3) Groups of rats were established as follows for each UWEC-K compound:
(§4) • A. Diet (Negative) controls: no anticoagulant additive to food • B. Positive controls: food treated with warfarin at LD50 concentration for a rat weighing 180 g • C. Control to evaluate potentiation or diminution of warfarin effect. […] The groups will be repeated for each of the two compounds. Four animals in each group were anaesthetized at 96 hours, and exsanguinated by cardiac puncture. Prior to exsanguination each animal was anesthetized by the intraperitoneal injection of 50 mg/kg of sodium pentothal. Blood was collected in 3.2% citrate in pediatric tubes and tested for prothrombin time and active coagulation factors VII and X. Factor V will also be tested as a marker of potential hepatic toxicity. […] Animals were monitored twice daily and any animals found in apparent distress with be immediately sacrificed as above.

clotting factor VII = experiment: Rat feeding study: level of active coagulation factor VII; format: in vivo, Sprague-Dawley rats; settings: rats; for VII %: in feed
Description: as §1, §2, §3, §4

clotting factor X = experiment: Rat feeding study: level of active coagulation factor X; format: in vivo, Sprague-Dawley rats; settings: rats; for X %: in feed
Description: as §1, §2, §3, §4

[2] = Rat feeding study: toxicity control (LDH, AST, ALT, Alkaline Phosphatase, creatinine in plasma and serum); settings: rats, in feed
Description: as §1, §2, §3, §4

blood clotting [3] = experiment: Rat feeding study: overall effect on blood clotting and on the anticoagulant activity of warfarin; format: in vivo, Sprague-Dawley rats; settings: rats; for effect on blood clotting time and levels of clotting factors, compound alone (in words): without warfarin, all three doses; for effect on the activity of warfarin (in words): 10 days of co-administration with warfarin
Description: The containers were modified to prevent spillage. Rats were provided with water ad libitum.
Thus diets were constructed at 0.1 mpk/d. 1 mpk/d and 10 mpk/d.
Control to evaluate potentiation or diminution of warfarin effect.

rat = settings: for 5 days; cited from earlier work
blood clotting [4] = settings: 0.25 mg/kg, rats of approximately 200 gm BW; cited from earlier work
[5] = 10 days, co-administered with warfarin

SMILES: CC(=O)Oc1c2c(c(OC(C)=O)c3ccccc13)[C@@H]1C[C@H]2C2OC21 (stereo partly drawn) [UWEC-K2]
- prothrombin clotting time increase compared to control (blood clotting [1]; [5]): almost an order of magnitude
- prothrombin clotting time increased by a factor relative to warfarin alone (blood clotting [1]; [5]): over 4
- Pro Time (blood clotting [1]; 4 days, 0.025 mpk): 11.38
- Pro Time (blood clotting [1]; 4 days, 0.25 mpk): 11.63
- Pro Time (blood clotting [1]; 4 days, 2.5 mpk): 12.73
- Pro Time (blood clotting [1]; 10 days, 0.025 mpk): 11.58
- Pro Time (blood clotting [1]; 10 days, 0.25 mpk): 11.55
- Pro Time (blood clotting [1]; 10 days, 2.5 mpk, 2.5 mg/kg): 11.57 and 11.63
- levels of Factor VII reduced by a factor compared to control (clotting factor VII; [5]): ~20
- levels of Factor VII reduced by a factor relative to warfarin alone (clotting factor VII; [5]): 3
- VII % (clotting factor VII; 4 days, 0.025 mpk): 366.25%
- VII % (clotting factor VII; 4 days, 0.25 mpk): 334.33%
- VII % (clotting factor VII; 4 days, 2.5 mpk): 395.50%
- VII % (clotting factor VII; 10 days, 0.025 mpk): 350.17%
- VII % (clotting factor VII; 10 days, 0.25 mpk): 295.17%
- VII % (clotting factor VII; 10 days, 2.5 mpk, 2.5 mg/kg): 325.33% and 286.83%
- levels of Factor X reduced by a factor compared to control (clotting factor X; [5]): ~20
- levels of Factor X reduced by a factor relative to warfarin alone (clotting factor X; [5]): 4
- X % (clotting factor X; 4 days, 0.025 mpk): 73.25%
- X % (clotting factor X; 4 days, 0.25 mpk): 61.00%
- X % (clotting factor X; 4 days, 2.5 mpk): 61.00%
- X % (clotting factor X; 10 days, 0.025 mpk): 64.17%
- X % (clotting factor X; 10 days, 0.25 mpk): 59.83%
- X % (clotting factor X; 10 days, 2.5 mpk, 2.5 mg/kg): 63.33% and 61.00%
- ALT ([2]; 4 days, 0.025 mpk): 40.25
- AST ([2]; 4 days, 0.025 mpk): 104.75
- Alk Phos ([2]; 4 days, 0.025 mpk): 213.50
- Creat. ([2]; 4 days, 0.025 mpk): 0.10
- LDH ([2]; 4 days, 0.025 mpk): 758.75
- ALT ([2]; 4 days, 0.25 mpk): 45.00
- AST ([2]; 4 days, 0.25 mpk): 135.33
- Alk Phos ([2]; 4 days, 0.25 mpk): 240.33
- Creat. ([2]; 4 days, 0.25 mpk): 0.10
- LDH ([2]; 4 days, 0.25 mpk): 1496.33
- ALT ([2]; 4 days, 2.5 mpk): 35.50
- AST ([2]; 4 days, 2.5 mpk): 114.75
- Alk Phos ([2]; 4 days, 2.5 mpk): 217.25
- Creat. ([2]; 4 days, 2.5 mpk): 0.10
- LDH ([2]; 4 days, 2.5 mpk): 1026.50
- ALT ([2]; 10 days, 0.025 mpk): 48.17
- AST ([2]; 10 days, 0.025 mpk): 132.33
- Alk Phos ([2]; 10 days, 0.025 mpk): 241.67
- Creat. ([2]; 10 days, 0.025 mpk): 0.10
- LDH ([2]; 10 days, 0.025 mpk): 1552.33
- ALT ([2]; 10 days, 0.25 mpk): 47.50
- AST ([2]; 10 days, 0.25 mpk): 118.67
- Alk Phos ([2]; 10 days, 0.25 mpk): 274.17
- Creat. ([2]; 10 days, 0.25 mpk): 0.12
- LDH ([2]; 10 days, 0.25 mpk): 1445.50
- ALT ([2]; 10 days, 2.5 mpk): 48.50
- AST ([2]; 10 days, 2.5 mpk): 110.67
- Alk Phos ([2]; 10 days, 2.5 mpk): 264.17
- Creat. ([2]; 10 days, 2.5 mpk): 0.15
- LDH ([2]; 10 days, 2.5 mpk): 1234.50
- effect on blood clotting time and levels of clotting factors, compound alone (in words) (blood clotting [3]; 4 days): do not differ significantly from control
- effect on the activity of warfarin (in words) (blood clotting [3]): significantly enhance the effect of warfarin
- effect on blood clotting time and levels of clotting factors, compound alone (in words) (blood clotting [3]; 10 days): do not differ significantly from control

SMILES: CC(=O)CC(c1ccccc1)c1c(O)c2ccccc2oc1=O (stereo not drawn) [Warfarin, warfarin, reference compound]
- Pro Time (blood clotting [1]; 4 days, 0.25 mpk): 36.98
- Pro Time (blood clotting [1]; 10 days, 0.25 mpk): 24.38
- VII % (clotting factor VII; 4 days, 0.25 mpk): 29.54%
- VII % (clotting factor VII; 10 days, 0.25 mpk): 56.18%
- X % (clotting factor X; 4 days, 0.25 mpk): 10.00%
- X % (clotting factor X; 10 days, 0.25 mpk): 14.85%
- ALT ([2]; 4 days, 0.25 mpk): 46.00
- AST ([2]; 4 days, 0.25 mpk): 123.25
- Alk Phos ([2]; 4 days, 0.25 mpk): 242.30
- Creat. ([2]; 4 days, 0.25 mpk): 0.11
- LDH ([2]; 4 days, 0.25 mpk): 1168.88
- ALT ([2]; 10 days, 0.25 mpk): 48.09
- AST ([2]; 10 days, 0.25 mpk): 91.82
- Alk Phos ([2]; 10 days, 0.25 mpk): 249.73
- Creat. ([2]; 10 days, 0.25 mpk): 0.15
- LDH ([2]; 10 days, 0.25 mpk): 626.18
- LD50 (rat): 1 mg/kg/day
- INR maintained (blood clotting [4]): 2.6

SMILES: CC(=O)Oc1c2c(c(OC(C)=O)c3ccccc13)[C@H]1C=C[C@@H]2C1 [UWEC-K1]
- Pro Time (blood clotting [1]; 4 days, 0.025 mpk): 11.18
- Pro Time (blood clotting [1]; 4 days, 0.25 mpk): 11.60
- Pro Time (blood clotting [1]; 4 days, 2.5 mpk): 11.78
- Pro Time (blood clotting [1]; 10 days, 0.025 mpk): 11.37
- Pro Time (blood clotting [1]; 10 days, 0.25 mpk): 11.72
- Pro Time (blood clotting [1]; 10 days, 2.5 mpk): 11.63
- VII % (clotting factor VII; 4 days, 0.025 mpk): 346.75%
- VII % (clotting factor VII; 4 days, 0.25 mpk): 351.33%
- VII % (clotting factor VII; 4 days, 2.5 mpk): 370.75%
- VII % (clotting factor VII; 10 days, 0.025 mpk): 364.00%
- VII % (clotting factor VII; 10 days, 0.25 mpk): 304.67%
- VII % (clotting factor VII; 10 days, 2.5 mpk): 286.83%
- X % (clotting factor X; 4 days, 0.025 mpk): 74.50%
- X % (clotting factor X; 4 days, 0.25 mpk): 65.33%
- X % (clotting factor X; 4 days, 2.5 mpk): 64.25%
- X % (clotting factor X; 10 days, 0.025 mpk): 68.00%
- X % (clotting factor X; 10 days, 0.25 mpk): 61.17%
- X % (clotting factor X; 10 days, 2.5 mpk): 61.00%
- ALT ([2]; 4 days, 0.025 mpk): 37.67
- AST ([2]; 4 days, 0.025 mpk): 121.00
- Alk Phos ([2]; 4 days, 0.025 mpk): 170.67
- Creat. ([2]; 4 days, 0.025 mpk): 0.15
- LDH ([2]; 4 days, 0.025 mpk): 1075.33
- ALT ([2]; 4 days, 0.25 mpk): 41.75
- AST ([2]; 4 days, 0.25 mpk): 152.75
- Alk Phos ([2]; 4 days, 0.25 mpk): 245.75
- Creat. ([2]; 4 days, 0.25 mpk): 0.10
- LDH ([2]; 4 days, 0.25 mpk): 1168.00
- ALT ([2]; 4 days, 2.5 mpk): 39.00
- AST ([2]; 4 days, 2.5 mpk): 125.67
- Alk Phos ([2]; 4 days, 2.5 mpk): 230.67
- Creat. ([2]; 4 days, 2.5 mpk): 0.10
- LDH ([2]; 4 days, 2.5 mpk): 1304.67
- ALT ([2]; 10 days, 0.025 mpk): 49.33
- AST ([2]; 10 days, 0.025 mpk): 134.67
- Alk Phos ([2]; 10 days, 0.025 mpk): 252.17
- Creat. ([2]; 10 days, 0.025 mpk): 0.13
- LDH ([2]; 10 days, 0.025 mpk): 1697.17
- ALT ([2]; 10 days, 0.25 mpk): 48.33
- AST ([2]; 10 days, 0.25 mpk): 121.33
- Alk Phos ([2]; 10 days, 0.25 mpk): 283.50
- Creat. ([2]; 10 days, 0.25 mpk): 0.15
- LDH ([2]; 10 days, 0.25 mpk): 1330.33
- ALT ([2]; 10 days, 2.5 mpk): 49.33
- AST ([2]; 10 days, 2.5 mpk): 124.67
- Alk Phos ([2]; 10 days, 2.5 mpk): 264.00
- Creat. ([2]; 10 days, 2.5 mpk): 0.15
- LDH ([2]; 10 days, 2.5 mpk): 1663.83
- effect on blood clotting time and levels of clotting factors, compound alone (in words) (blood clotting [3]; 4 days): do not differ significantly from control
- effect on the activity of warfarin (in words) (blood clotting [3]): significantly enhance the effect of warfarin
- effect on blood clotting time and levels of clotting factors, compound alone (in words) (blood clotting [3]; 10 days): do not differ significantly from control
